Reference: US7501281B2, “Compositions, methods and kits related to thrombin, Notch signaling and stamatogenesis and growth of stem cells” (Maine Medical Center Research Institute, priority 2003, dated 2009)
Marks after values point to notes of the source that are not given here.

B1: sDl1: soluble non-transmembrane form of the Notch ligand Delta1 (protein)
chain: QVWSSGVFELKLQEFVNKKGLLGNRNCCRGGAGPPPCACRTFFRVCLKHYQASVSPEPPCTYGSAVTPVLGVDSFSLPDGGGADSAFSNPIRFPFGFTWPGTFSLIIEALHTDSPDDLATENPERLISRLATQRHLTVGEEWSQDLHSSGRTDLKYSYRFVCDEHYYGEGCSVFCRPRDDAFGHFTCGERGEKVCNPGWKGPYCTEPICLPGCDEQHGFCDKPGECKCRVGWQGRYCDECIRYPGCLHGTCQQPWQCNCQEGWGGLFCNQDLNYCTHHKPCKNGATCTNTGQGSYTCSCRPGYTGATCELGIDECDPSPCKNGGSCTDLENSYSCTCPPGFYGKICELSAMTCADGPCFNGGRCSDSPDGGYSCRCPVGYSGFNCEKKIDYCSSSPCSNGAKCVDLGDAYLCRCQAGFSGRHCDDNVDDCASSPCANGGTCRDGVNDFSCTCPPGYTGRNCSAPVSRCEHAPCHNGATCHERGHRYVCECARGYGGPNCQFLLPELPPGPAVVDLTEKLEGQGGPFPW
modifications: left off: small tags and cut ends
notes: soluble non-transmembrane form of the Notch ligand Delta1

Legend:
[1] = system: Notch-dependent CSL1 activity in full-length Jagged1 NIH 3T3 cell transfectants; assay: Dual Luciferase Reporter Assay of CSL1-dependent transcription; assay type: cell-based, murine
[2] = system: secondary NCSC populations; assay: Dosage sensitivity of secondary NCSC to instructive differentiation factors BMP2 and sDl1; assay type: cell-based; details: clones expanded 18 days; 5 μM TRAP, sJ1 or thrombin
Method: Secondary NCSC population were generated from founder NCSC clones after 13 days of growth in Morrison media supplemented either with 7.5 nM sJ1 (▴-▴), 5 μg/ml α-thrombin (▾-▾), 5 μM TRAP (♦-♦) or no additive (control; ▪-▪) and compared to freshly isolated populations of NCSC (●-●). […] Clonogenic differentiation assays of secondary P75^+/P0^− NCSC populations were assayed in Morrison media as a function of the concentration of the neurogenic differentiation factor, BMP2, and the generation of Neuron-only clones was assessed 14 days after the addition of BMP2. […] Clonogenic differentiation assays of secondary P75^+/P0^− NCSC were preformed in Morrison media supplemented with increasing concentrations of the gliogenic differentiation factor, sDl1 and the generation of Glial-only clones was assessed 14 days after the addition of sDl1. […]
It is well established that quantitative changes in the dosage sensitivity of NCSC populations occur in vitro and in vivo during NCSC self-renewal (Kubu et al., 2002, Dev. Biol. 244:199-214; White et al., 1999, Development 126:4351-4363; White et al., 2001, Neuron 29:57-71). […] The dosage sensitivity of secondary NCSC populations to both BMP2 and sDl1 was evaluated using the clonogenic differentiation assay to quantitate the production of neuron-only clones (BMP2) and glial-only clones (sDl1) after day 18.

[3] = system: mouse NSCS populations; assay: Clonogenic differentiation assay of NCSC, pre-incubation with Notch ligand then BMP2 challenge; assay type: cell-based
Method: Clonogenic assays were performed as described (Stemple et al., 1992, Cell 71:973-985). Briefly, populations of murine NCSC were plated at a clonal density and maintained for a maximum of 14 days in Morrison media supplemented with 15% chick embryo extract (Morrison et al., 1999, Cell 96:737-749). The resulting clones were fixed in an acetic acid:ethanol solution (2:1) and stained with antibodies against peripherin (Chemicon) to detect neurons, smooth muscle actin (Sigma) to detect myofibroblasts, and GFAP (Chemicon) to detect Schwann cells. Clones were scored based on the appearance of just one phenotypic representative. The number and percentage of clones containing neurons only (N), Schwann cells only (S), myofibroblasts only (M), N+S, N+M, N+S+M, and S+M were scored at day 14 unless otherwise stated. The production of each representative phenotype in each individual clone was also scored to complement the clonal population assay.
NCSC Retain Neurogenic capacity in the presence of sJ1. A clonogenic differentiation assay was performed using mouse NSCS populations as described previously (Kubu et al., 2002, Dev. Biol. 244:199-214; Stemple et al., 1992, Cell 71:973-985). The cells were incubated in Stemple media (Stemple et al., 1992) with or without 5 nM sDl1 or 7.5 nM sJ I for the time periods set forth in Table 1. After the initial incubation period, cells were washed and neuronal differentiation was challenged in the presence of 1 ng/ml BMP2 for an additional seven days. The resulting clones were fixed and stained for detection of neural crest markers. The data disclosed in Table 1 is presented as the percentage of glial-only, neuron-only, and neuron colonies containing either smooth muscle or glial markers as the mean±standard deviation (SD) of three experiments originating from three independent cell isolations. Note the retention of neurogenic differentiation capacity in sJ1-treated cells (*=p<0.01) compared with the sDl1-treated cells.

[4] = 24 hrs with 5 nM sDl1 or 7.5 nM sJ1, then 1 ng/ml BMP2 for seven days, percentage of colonies, mean±SD
[5] = 72 hrs with 7.5 nM sJ1, then 1 ng/ml BMP2 for seven days
[6] = 120 hrs with 7.5 nM sJ1, then 1 ng/ml BMP2 for seven days
[7] = 168 hrs with 7.5 nM sJ1, then 1 ng/ml BMP2 for seven days

Molecule | effect on Notch-dependent CSL1 activity [1] | CSL1-dependent transcription, of the control level ([1]; maximal attenuation by thrombin) | shift in sensitivity to instructive differentiation signals [2] | CSL1-dependent transcription, of the control level ([1]; sJ1 expression (sJ1 NIH 3T3 cell transfectants)) | Glial-Only [3, 4] [%] | Neuron-Containing [3, 4] | Neuron-Only [3, 4] | Glial-Only [3, 5] [%*] | Neuron-Containing [3, 5] [%*] | Neuron-Only [3, 5] [%*] | Glial-Only [3, 6] [%*] | Neuron-Containing [3, 6] [%*] | Neuron-Only [3, 6] [%*] | Glial-Only [3, 7] [%*] | Neuron-Containing [3, 7] [%] | Neuron-Only [3, 7] [%*]
Thrombin | reduce the level of Notch-dependent CSL1 activity in a dose-dependent manner | approximately 75% | not observed | – | – | – | – | – | – | – | – | – | – | – | – | –
sJ1: Soluble Jagged1, amino acid residues from about 1 to 1067 (SEQ ID NO:3) of full-length Jagged1 | – | – | not observed | approximately 25% | 0 | 71.4 ± 6.2%* | 54.4 ± 8.4%* | 0.8 ± 1.4 | 74.8 ± 16.3 | 42.8 ± 6.6 | 5.82 ± 3.4 | 52.01 ± 14.1 | 13.43 ± 6.5 | 13.3 ± 4.5 | 35.03 ± 9.1 | 6.5 ± 1.3
B1 | – | – | – | – | 57.8 ± 9.9 | 7.0 ± 5.7% | 0% | – | – | – | – | – | – | – | – | –
